# In ChEMBL document CHEMBL1201862, “PubChem BioAssay data set” (2004):
#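 Compound exposure: 48 hours, 5 concentrations, 96-well plates. Here, GI50 denotes the concentration required for 50% inhibition of growth.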 Active and inactive are the calls of the source. Rule as the data show it: active = GI50 up to about 1.1 µM and inactive = higher.
# Key:
# Assay in all cases: NCI anticancer screen, dose series, 48 h
# 786-0 = system: 786-0
# A549 = system: A549
# ACHN = system: ACHN
# CAKI-1 = system: CAKI-1
# CCRF-CEM = system: CCRF-CEM
# COLO 205 = system: COLO 205
# DLD-1 = system: DLD-1
# DMS-114 = system: DMS-114
# EKVX = system: EKVX
# HCC 2998 = system: HCC 2998
# HL-60 = system: HL-60
# HOP-62 = system: HOP-62
# HOP-92 = system: HOP-92
# HT-29 = system: HT-29
# IGROV-1 = system: IGROV-1
# K562 = system: K562
# KM-20L2 = system: KM-20L2
# LOX IMVI = system: LOX IMVI
# M14 = system: M14
# M19-MEL = system: M19-MEL
# Malme-3M = system: Malme-3M
# NCI-H226 = system: NCI-H226
# NCI-H23 = system: NCI-H23
# NCI-H522 = system: NCI-H522
# OVCAR-3 = system: OVCAR-3
# OVCAR-4 = system: OVCAR-4
# OVCAR-5 = system: OVCAR-5
# OVCAR-8 = system: OVCAR-8
# RPMI-8226 = system: RPMI-8226
# RXF 393 = system: RXF 393
# RXF 631 = system: RXF 631
# SF-268 = system: SF-268
# SF-295 = system: SF-295
# SF-539 = system: SF-539
# SK-MEL-28 = system: SK-MEL-28
# SK-MEL-2 = system: SK-MEL-2
# SK-MEL-5 = system: SK-MEL-5
# SK-OV-3 = system: SK-OV-3
# SN12C = system: SN12C
# SNB-19 = system: SNB-19
# SNB-75 = system: SNB-75
# SW-620 = system: SW-620
# TK-10 = system: TK-10
# UACC-257 = system: UACC-257
# UACC-62 = system: UACC-62
# XF498 = system: XF498
# A498 = system: A498
# DMS-273 = system: DMS-273
# HCT-116 = system: HCT-116
# HCT-15 = system: HCT-15
# KM12 = system: KM12
# LXFL 529 = system: LXFL 529
# NCI-H460 = system: NCI-H460
# SNB-78 = system: SNB-78
# U-251 = system: U-251
# UO-31 = system: UO-31
structure (smiles),measurement,setting,value
CC1(C)C(=NNC(=S)NN)C(C)(C)C1=NNC(=S)NN,GI50,786-0,> 100 µM (inactive)
same,GI50,A549,> 100 µM (inactive)
same,GI50,ACHN,> 100 µM (inactive)
same,GI50,CAKI-1,> 100 µM (inactive)
same,GI50,CCRF-CEM,60.8 µM (inactive)
same,GI50,COLO 205,> 100 µM (inactive)
same,GI50,DLD-1,> 100 µM (inactive)
same,GI50,DMS-114,> 100 µM (inactive)
same,GI50,EKVX,> 100 µM (inactive)
same,GI50,HCC 2998,> 100 µM (inactive)
same,GI50,HL-60,> 10 µM (inactive)
same,GI50,HOP-62,> 100 µM (inactive)
same,GI50,HOP-92,> 100 µM (inactive)
same,GI50,HT-29,> 100 µM (inactive)
same,GI50,IGROV-1,> 100 µM (inactive)
same,GI50,K562,43.2 µM (inactive)
same,GI50,KM-20L2,> 100 µM (inactive)
same,GI50,LOX IMVI,> 100 µM (inactive)
same,GI50,M14,> 100 µM (inactive)
same,GI50,M19-MEL,> 100 µM (inactive)
same,GI50,Malme-3M,> 100 µM (inactive)
same,GI50,NCI-H226,4.9 µM (inactive)
same,GI50,NCI-H23,> 100 µM (inactive)
same,GI50,NCI-H522,75 µM (inactive)
same,GI50,OVCAR-3,> 100 µM (inactive)
same,GI50,OVCAR-4,> 100 µM (inactive)
same,GI50,OVCAR-5,> 100 µM (inactive)
same,GI50,OVCAR-8,> 100 µM (inactive)
same,GI50,RPMI-8226,> 100 µM (inactive)
same,GI50,RXF 393,> 100 µM (inactive)
same,GI50,RXF 631,> 100 µM (inactive)
same,GI50,SF-268,> 100 µM (inactive)
same,GI50,SF-295,> 100 µM (inactive)
same,GI50,SF-539,> 100 µM (inactive)
same,GI50,SK-MEL-28,> 100 µM (inactive)
same,GI50,SK-MEL-2,> 100 µM (inactive)
same,GI50,SK-MEL-5,58.5 µM (inactive)
same,GI50,SK-OV-3,> 100 µM (inactive)
same,GI50,SN12C,> 100 µM (inactive)
same,GI50,SNB-19,> 100 µM (inactive)
same,GI50,SNB-75,98.4 µM (inactive)
same,GI50,SW-620,> 100 µM (inactive)
same,GI50,TK-10,> 100 µM (inactive)
same,GI50,UACC-257,> 100 µM (inactive)
same,GI50,UACC-62,> 100 µM (inactive)
same,GI50,XF498,> 100 µM (inactive)
O=C(CC(=O)C1CCOC1=O)C(=O)Nc1ccc(Cl)cc1 (stereo unspecified),GI50,786-0,> 100 µM (inactive)
same,GI50,A498,> 100 µM (inactive)
same,GI50,A549,> 100 µM (inactive)
same,GI50,ACHN,> 100 µM (inactive)
same,GI50,CAKI-1,> 100 µM (inactive)
same,GI50,CCRF-CEM,> 100 µM (inactive)
same,GI50,COLO 205,> 100 µM (inactive)
same,GI50,DLD-1,> 100 µM (inactive)
same,GI50,DMS-114,> 100 µM (inactive)
same,GI50,DMS-273,> 100 µM (inactive)
same,GI50,EKVX,> 100 µM (inactive)
same,GI50,HCC 2998,> 100 µM (inactive)
same,GI50,HCT-116,> 100 µM (inactive)
same,GI50,HCT-15,> 100 µM
same,GI50,HL-60,> 100 µM (inactive)
same,GI50,HOP-62,> 100 µM (inactive)
same,GI50,HOP-92,> 100 µM (inactive)
same,GI50,HT-29,> 100 µM (inactive)
same,GI50,IGROV-1,> 100 µM (inactive)
same,GI50,K562,> 100 µM (inactive)
same,GI50,KM-20L2,> 100 µM (inactive)
same,GI50,KM12,> 100 µM (inactive)
same,GI50,LOX IMVI,> 100 µM (inactive)
same,GI50,LXFL 529,> 100 µM (inactive)
same,GI50,M14,> 100 µM (inactive)
same,GI50,M19-MEL,> 100 µM (inactive)
same,GI50,Malme-3M,> 100 µM (inactive)
same,GI50,NCI-H226,> 100 µM (inactive)
same,GI50,NCI-H23,> 100 µM (inactive)
same,GI50,NCI-H460,> 100 µM (inactive)
same,GI50,NCI-H522,> 100 µM (inactive)
same,GI50,OVCAR-3,> 100 µM (inactive)
same,GI50,OVCAR-4,> 100 µM (inactive)
same,GI50,OVCAR-5,> 100 µM (inactive)
same,GI50,OVCAR-8,> 100 µM (inactive)
same,GI50,RPMI-8226,> 100 µM (inactive)
same,GI50,RXF 393,> 100 µM (inactive)
same,GI50,RXF 631,> 100 µM (inactive)
same,GI50,SF-268,> 100 µM (inactive)
same,GI50,SF-295,> 100 µM (inactive)
same,GI50,SF-539,> 100 µM (inactive)
same,GI50,SK-MEL-28,> 100 µM (inactive)
same,GI50,SK-MEL-2,> 100 µM (inactive)
same,GI50,SK-MEL-5,> 100 µM (inactive)
same,GI50,SK-OV-3,> 100 µM (inactive)
same,GI50,SN12C,> 100 µM (inactive)
same,GI50,SNB-19,> 100 µM (inactive)
same,GI50,SNB-75,> 100 µM (inactive)
same,GI50,SNB-78,> 100 µM (inactive)
same,GI50,SW-620,> 100 µM (inactive)
same,GI50,TK-10,> 100 µM (inactive)
same,GI50,U-251,> 100 µM (inactive)
same,GI50,UACC-257,> 100 µM (inactive)
same,GI50,UACC-62,> 100 µM (inactive)
same,GI50,UO-31,> 100 µM (inactive)
